From patent US6043242A, “Imidazopyridazines” (Byk Gulden Lomberg Chemische Fabrik GmbH, priority 1996, dated 2000)
Converted amounts (≈) assume the structure as drawn. Counter-ions that a name gives are not always drawn.

Legend:
Helicobacter fells = test: in vivo activity against Helicobacter fells in the mouse (elimination rate); details: po, 96 h, administered orally at 3×50 mg/kg over the course of 4 days
Experimental: With respect to their in vivo activity against Helicobacter fells in the mouse, the compounds of the formula I were investigated following the methodology described by E. Dick-Hegedus and A. Lee (Scand. J. Gastroenterol. 1991, 26, 909-915). The substances were administered orally at 3×50 mg/kg over the course of 4 days. The elimination rates listed in Table A below resulted here for the compounds investigated: […]

Helicobacter pylori = test: activity against Helicobacter pylori (MIC50), Columbia agar, growth period of 4 days; format: cell-based; details: 96 h, approx. MIC 50 values, Columbia agar (Oxoid)
Source text: The compounds of the formula I were investigated with respect to their activity against Helicobacter pylori following the methodology described by Tomoyuki Iwahi et al. (Antimicrobial Agents and Chemotherapy, 1991, 490-496) using Columbia agar (Oxoid) and with a growth period of 4 days. The approx. MIC 50 values listed in Table A below resulted here for the compounds investigated (the stated numbers of the compounds agree with the example numbers in the description).

SMILES | responders at 50 mg/kg (Helicobacter fells) [%] | MIC50 (Helicobacter pylori) [µg/mL]
Cc1c(SCCCSc2ccc3ncc([N+](=O)[O-])n3n2)ccnc1CO [Compound 1, {3-Methyl-4-[3-(3-nitroimidazo[1,2-b]pyridazin-6-ylsulfanyl)propylsulfanyl]pyridin-2-yl}methanol] | 100 | 0.05 (≈ 0.128 µM)
Cc1c(SCCCSc2ccc3ncc([N+](=O)[O-])n3n2)ccnc1CSc1ncccn1 [Compound 4, 6-{3-[3-Methyl-2-(pyrimidin-2-ylsulfanylmethyl)-pyridin-4-ylsulfanyl]propyisulfanyl)3-nitro-imidazo[1,2-b]pyridazine] | 100 | 0.1 (≈ 0.206 µM)
COCCOCCSCc1nccc(SCCCSc2ccc3ncc([N+](=O)[O-])n3n2)c1C [Compound 9, 6-(3-}2-[2-(2-Methoxyethoxy)ethylsulfanylmethyl]-3-methylpyridin-4-ylsulfanyl}-propylsulfanyl)-3-nitroimidazo[1,2-b]pyridazine fumarate] | 100 | 0.1
Cc1c(OCCCOc2ccc3ncc([N+](=O)[O-])n3n2)cc[n+]([O-])c1C [Compound 13, 6-[3-(2,3-Dimethyl-1-oxypyridin-4-yloxy)propoxy]-3-nitroimidazo[1,2-b]pyridazine] | 100 | 0.5 (≈ 1.39 µM)
Cc1c(OCCCSc2ccc3ncc([N+](=O)[O-])n3n2)ccnc1CO [Compound 15, {3-Methyl-4-[3-(3-nitroimidazo[1,2-b]pyridazin-6-ylsulfanyl)propoxy]pyridin-2-yl}-methanol] | 100 | 0.05 (≈ 0.133 µM)
CN(CCSc1ccc2ncc([N+](=O)[O-])n2n1)c1ccnc(CSc2nc3ccccc3[nH]2)c1Cl [Compound 17] | 100 | 0.1 (≈ 0.19 µM)
CN(CCSc1ccc2ncc([N+](=O)[O-])n2n1)c1ccnc(CSc2ncccn2)c1Cl [Compound 18] | 100 | 0.1 (≈ 0.205 µM)
Cc1ccnc(SCc2nccc(SCCCSc3ccc4ncc([N+](=O)[O-])n4n3)c2C)n1 [Compound 25, 6-{3-[3-Methyl-2-(4-methyl-pyrimidin-2-ylsulfanylmethyl)-pyridin-4-ylsulfanyl]-propylsulfanyl}-3-nitroimidazo[1,2-b]pyridazine] | 100 | 0.05 (≈ 0.1 µM)
CN(CCOc1ccc2ncc([N+](=O)[O-])n2n1)c1ccnc(CSc2nc3ccccc3[nH]2)c1Cl.Cl [Compound 27, [2-(1H-benzimidazol-2-ylsulfanylmethyl)-3-chloropyridin-4-yl]-methyl-[2-(3-nitroimidazo[1,2-b]pyridazin-6-yloxy)-ethyl]amine hydrochloride] | 100 | 0.1
